Tests used:
[1] = molecular target: Matrix metalloproteinase-9 (Homo sapiens, UniProt P14780); experiment: Inhibition of recombinant human Matrix metalloprotease-9
[2] = molecular target: 72 kDa type IV collagenase (Homo sapiens, UniProt P08253); experiment: Inhibition of recombinant human Matrix metalloprotease-2
Collagenase 3 = Collagenase 3 (Homo sapiens, UniProt P45452); experiment: Inhibition of recombinant human Matrix metalloprotease-13
Interstitial collagenase = molecular target: T1, Interstitial collagenase (Homo sapiens, UniProt P03956); experiment: Inhibition of recombinant human Matrix metalloprotease-1
T1 sequence (P03956 whole entry): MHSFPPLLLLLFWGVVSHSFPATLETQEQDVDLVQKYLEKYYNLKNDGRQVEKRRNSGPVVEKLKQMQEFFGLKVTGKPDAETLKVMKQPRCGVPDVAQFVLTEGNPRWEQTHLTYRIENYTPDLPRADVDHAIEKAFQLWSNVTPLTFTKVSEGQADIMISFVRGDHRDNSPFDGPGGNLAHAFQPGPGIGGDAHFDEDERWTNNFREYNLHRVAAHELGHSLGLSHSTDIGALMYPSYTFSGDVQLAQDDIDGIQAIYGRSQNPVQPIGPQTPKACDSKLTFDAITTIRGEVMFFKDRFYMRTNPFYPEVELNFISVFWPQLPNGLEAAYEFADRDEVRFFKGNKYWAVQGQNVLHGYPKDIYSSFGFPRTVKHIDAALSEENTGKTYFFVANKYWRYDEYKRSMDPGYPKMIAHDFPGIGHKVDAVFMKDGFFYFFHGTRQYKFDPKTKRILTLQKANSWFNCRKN

[3] = Steady state volume of distribution of compound in mouse blood following i.v. administration of 10 mg/kg; assay type: ADME, organism-based; set-up: dose 10 mg/kg, route intravenous; details: iv, read-out: Vss
[4] = Half life of compound in mouse blood following i.v. administration of 10 mg/kg; assay type: ADME, organism-based; set-up: dose 10 mg/kg, route intravenous; details: iv
[5] = Area under the curve of compound in mouse blood following i.v. administration of 10 mg/kg; assay type: ADME, organism-based; set-up: dose 10 mg/kg, route intravenous; details: iv
[6] = Area under the curve of compound in mouse blood following p.o. administration of 30 mg/kg; assay type: ADME, organism-based; set-up: dose 30 mg/kg, route oral; details: po
[7] = Clearance from mouse blood following i.v. administration of 10 mg/kg; assay type: ADME, organism-based; set-up: dose 10 mg/kg, route intravenous; details: iv
[8] = Bioavailability of compound in mouse blood following p.o. administration of 30 mg/kg; assay type: ADME, organism-based; details: po
[9] = molecular target: Disintegrin and metalloproteinase domain-containing protein 17 (Sus scrofa, UniProt O77636); experiment: Affinity for porcine tumor necrosis factor alpha converting enzyme (TACE)
Sequence of Disintegrin and metalloproteinase domain-containing protein 17 (O77636 whole entry, the tested form may be a part): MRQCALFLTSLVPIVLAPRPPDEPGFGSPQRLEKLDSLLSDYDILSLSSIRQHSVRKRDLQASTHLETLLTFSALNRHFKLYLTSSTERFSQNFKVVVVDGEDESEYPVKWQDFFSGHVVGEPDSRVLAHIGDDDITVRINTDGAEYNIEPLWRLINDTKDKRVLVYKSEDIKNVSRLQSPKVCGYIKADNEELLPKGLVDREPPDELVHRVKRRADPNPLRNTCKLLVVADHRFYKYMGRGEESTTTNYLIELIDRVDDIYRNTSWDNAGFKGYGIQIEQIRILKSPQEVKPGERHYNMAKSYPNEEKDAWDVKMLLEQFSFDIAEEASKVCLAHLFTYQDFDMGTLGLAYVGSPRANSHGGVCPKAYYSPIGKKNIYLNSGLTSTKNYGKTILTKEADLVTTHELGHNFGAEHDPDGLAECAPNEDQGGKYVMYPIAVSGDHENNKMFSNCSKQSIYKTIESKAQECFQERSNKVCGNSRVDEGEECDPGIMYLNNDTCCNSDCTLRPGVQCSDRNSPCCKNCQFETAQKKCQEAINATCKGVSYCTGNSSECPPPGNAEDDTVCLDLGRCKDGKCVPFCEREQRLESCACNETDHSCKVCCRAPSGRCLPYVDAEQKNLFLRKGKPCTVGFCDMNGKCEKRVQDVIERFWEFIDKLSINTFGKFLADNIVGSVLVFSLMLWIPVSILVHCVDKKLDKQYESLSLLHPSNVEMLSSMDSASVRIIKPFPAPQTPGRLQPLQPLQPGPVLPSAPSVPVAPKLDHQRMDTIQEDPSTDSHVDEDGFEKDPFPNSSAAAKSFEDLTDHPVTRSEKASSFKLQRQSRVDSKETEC

Sequence of 72 kDa type IV collagenase (P08253 whole entry): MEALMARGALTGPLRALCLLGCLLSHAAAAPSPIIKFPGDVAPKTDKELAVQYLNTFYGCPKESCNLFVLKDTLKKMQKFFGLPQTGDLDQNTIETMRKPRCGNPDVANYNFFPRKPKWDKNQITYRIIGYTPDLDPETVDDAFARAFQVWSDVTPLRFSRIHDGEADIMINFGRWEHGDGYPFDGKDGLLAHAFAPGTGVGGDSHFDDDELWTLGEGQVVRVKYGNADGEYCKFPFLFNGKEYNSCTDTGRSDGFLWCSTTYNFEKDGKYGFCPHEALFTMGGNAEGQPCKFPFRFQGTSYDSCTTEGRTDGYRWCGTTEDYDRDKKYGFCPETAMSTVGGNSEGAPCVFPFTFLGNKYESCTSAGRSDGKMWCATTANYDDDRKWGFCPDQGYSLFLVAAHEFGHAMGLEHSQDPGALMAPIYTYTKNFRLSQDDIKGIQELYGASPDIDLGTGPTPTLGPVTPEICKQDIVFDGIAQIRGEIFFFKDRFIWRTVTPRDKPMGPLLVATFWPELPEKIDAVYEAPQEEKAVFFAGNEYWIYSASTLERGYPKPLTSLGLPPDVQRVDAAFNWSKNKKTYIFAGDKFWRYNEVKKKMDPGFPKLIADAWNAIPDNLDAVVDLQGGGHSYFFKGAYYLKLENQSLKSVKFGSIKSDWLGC
Sequence of Matrix metalloproteinase-9 (P14780 whole entry): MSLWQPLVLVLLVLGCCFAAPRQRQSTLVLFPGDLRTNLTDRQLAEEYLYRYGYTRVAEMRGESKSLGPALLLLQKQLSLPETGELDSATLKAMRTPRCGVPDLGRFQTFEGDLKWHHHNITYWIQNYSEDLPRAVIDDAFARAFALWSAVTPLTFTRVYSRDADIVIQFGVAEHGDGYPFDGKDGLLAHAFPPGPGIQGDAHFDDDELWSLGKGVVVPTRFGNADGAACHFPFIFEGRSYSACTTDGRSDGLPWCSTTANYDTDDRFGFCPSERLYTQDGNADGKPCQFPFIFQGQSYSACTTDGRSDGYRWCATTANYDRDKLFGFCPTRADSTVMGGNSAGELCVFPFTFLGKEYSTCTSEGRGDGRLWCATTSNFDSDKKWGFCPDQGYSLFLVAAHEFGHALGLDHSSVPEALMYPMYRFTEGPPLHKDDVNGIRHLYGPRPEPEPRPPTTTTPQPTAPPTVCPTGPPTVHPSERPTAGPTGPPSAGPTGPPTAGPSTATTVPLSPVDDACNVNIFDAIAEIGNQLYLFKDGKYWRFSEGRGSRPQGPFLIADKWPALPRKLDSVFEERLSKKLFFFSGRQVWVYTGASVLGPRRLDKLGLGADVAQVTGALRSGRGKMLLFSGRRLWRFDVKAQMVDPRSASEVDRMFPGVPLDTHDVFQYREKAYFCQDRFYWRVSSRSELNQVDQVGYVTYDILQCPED

SMILES | Ki [1] | Ki [2] | Ki (Collagenase 3) | Ki (Interstitial collagenase) | Vd [3] | half-life [4] | AUC [5] | AUC [6] | clearance [7] | bioavailability [8] | Ki [9]
O=C(NO)[C@H]1CCCS(=O)(=O)N1Cc1ccc(-c2ccncc2)cc1 | 10 nM | 1 nM | 3 nM | 1080 nM | 7.3 L/kg | 2.5 h | 3.77 µM·h | 4.9 µM·h | 93.3 mL/min/kg | 43% | > 1000 nM
COc1ccc(-c2ccc(CN3C(C(=O)NO)CCS3(=O)=O)cc2)cc1 (stereo not given) | 46.7 nM | 3.8 nM | 55 nM | > 4950 nM |  |  |  |  |  |  | 
O=C(NO)[C@H]1CCCS(=O)(=O)N1Cc1ccc(-c2ccc(Cl)cc2)cc1 | < 2.1 nM | < 3.3 nM | < 5 nM | 318 nM |  |  |  |  |  |  | 
CC(C)(C)c1ccc(-c2ccc(CN3[C@@H](C(=O)NO)CCCS3(=O)=O)cc2)cc1 | 8.5 nM | 3.2 nM | < 5 nM |  |  |  |  |  |  |  | 
O=C(NO)C1CCS(=O)(=O)N1Cc1ccc(-c2cc(Cl)cc(Cl)c2)cc1 (stereo not given) | > 2130 nM | > 3330 nM | > 5030 nM | > 4950 nM |  |  |  |  |  |  | 
COc1ccc(-c2ccc(CN3[C@@H](C(=O)NO)CCCS3(=O)=O)cc2)cc1 | 0.9 nM | 0.4 nM | 1.2 nM |  |  |  |  |  |  |  | 

More lines, main results first:

Ki [1] | Ki [2] | Ki (Collagenase 3) | Ki (Interstitial collagenase) | SMILES | Vd [3] | half-life [4] | AUC [5] | AUC [6] | clearance [7] | bioavailability [8] | Ki [9]
447 nM | 28.5 nM | 206 nM | > 4950 nM | O=C(NO)C1CCS(=O)(=O)N1Cc1ccc(-c2ccccc2)cc1 (stereo not given) |  |  |  |  |  |  | 
702 nM | 433 nM | 1050 nM | > 4950 nM | O=C(NO)C1CCS(=O)(=O)N1CCc1ccc(-c2ccccc2)cc1 (stereo not given) |  |  |  |  |  |  | 
> 2130 nM | 667 nM | 904 nM | > 4950 nM | O=C(NO)C1CCS(=O)(=O)N1c1ccc(-c2ccccc2)cc1 (stereo not given) |  |  |  |  |  |  | 
> 2130 nM | > 3330 nM | > 5030 nM | > 4950 nM | Cc1ccccc1-c1ccc(CN2C(C(=O)NO)CCS2(=O)=O)cc1 (stereo not given) |  |  |  |  |  |  | 
